Test results taken from patent US8932853B2, “Method for manufacturing pancreatic-hormone-producing cells” (Takeda Pharmaceutical Company Limited, priority 2009, dated 2015).
Entries after “also recorded” stand apart in the source; their conditions may differ.

B1: activin A: 24 kD peptidic cell proliferation and differentiation factor belonging to the TGFβ family; activator of activin receptor-like kinase-4,7 (protein, UniProt P08476 311-426, looked up)
Inhibin beta A chain: GLECDGKVNICCKKQFFVSFKDIGWNDWIIAPSGYHANYCEGECPSHIAGTSGSSLSFHSTVINHYRMRGHSPFANLKSCCVPTKLRPMSMLYYDDGQNIIKKDIQNMIVEECGCS
modifications: Inhibin beta A chain

Legend:
Assay type in all cases: cell-based
[1] = test system: insulin-producing cells differentiated from human iPS cells; experiment: C-peptide secretion of differentiated insulin-producing cells in response to stimulation (Human C-peptide ELISA); conditions: 1 hr at 37° C. in buffer containing 2.5 mM glucose; (−)-Bay K8644 2 μM, tolbutamide 100 μM, carbachol 250 μM, IBMX 0.5 mM, KCl 30 mM; relative to 2.5 mM glucose
Procedure: The medium was changed once on day 7 of induction. […] The medium was changed every 3-4 days. After the culture, the cells were washed with a buffer containing 2.5 mM glucose (NaCl (116 mM), KCl (4.7 mM), KH2PO4 (1.18 mM), MgSO4 (1.18 mM), NaHCO3 (25 mM), CaCl2 (2.52 mM), HEPES (24 mM), 0.1% BSA), a buffer containing 2.5 mM glucose was added and the mixture was cultured at 37° C. for 2 hr. The supernatant was completely removed, and a buffer containing 2.5 mM glucose, a buffer containing 22.5 mM glucose, a buffer containing 2.5 mM glucose and 2 μM (−)-Bay K8644, a buffer containing 2.5 mM glucose and 100 μM tolbutamide, a buffer containing 2.5 mM glucose and 250 μM carbachol, a buffer containing 2.5 mM glucose and 0.5 mM IBMX, and a buffer containing 2.5 mM glucose and 30 mM KCl were respectively added. After culture at 37° C. for 1 hr, the culture supernatant was recovered, and the C-peptide contained in the culture supernatant was measured using Human C-peptide ELISA kit (Mercodia AB).

[2] = test system: human iPS cells (253G1 strain); experiment: immunofluorescent staining with anti-SOX17 antibody on day 3 of differentiation induction
Procedure: To examine expression of SOX17 protein after culture for 3 days, immunofluorescent staining using an anti-SOX17 antibody was performed. After culture up to day 3 in the same manner as in FIG. 1, the cells were fixed with 2% para-formaldehyde (PFA) for 10 min and further for 20 min with 4% PFA at room temperature.
Whether even use of a GSK3 inhibitor other than CHIR99021 in step (1) enables differentiation induction into endodermal cells was examined. The differentiation of human iPS cells into endodermal cells was induced according to the following method. […] Thereafter, the cells were washed with RPMI medium (GIBCO), and cultured for 1 day in RPMI medium containing various GSK3 inhibitors, activin A (100 ng/ml) and 2% fetal bovine serum (FBS). […] As a control, the cells were treated with a medium added only with activin A and free of GSK3 inhibitor. After culture for 1 day, the cells were washed with RPMI medium, and further cultured for 2 days in RPMI medium added with 2% FBS and 100 ng/ml activin A.
To examine expression of SOX17 protein on day 3 of differentiation induction, immunofluorescent staining using an anti-SOX17 antibody was performed. 4% PFA was added to the cells on day 3 of culture under each condition, the mixture was incubated at room temperature for 30 min to fix the cells.

[3] = test system: human iPS cells (253G1 strain); experiment: quantitative RT-PCR of BRACHYURY and SOX17 during induction of human iPS cells into endodermal cells, steps (1)-(2); conditions: added with activin A (100 ng/ml) only the first day, CHIR99021 3 μM, Wnt3a 25 ng/ml, relative to GAPDH
From the text: As a first stage for induction of differentiation of human iPS cells (iPS cells obtained by introducing Oct3/4 gene, Klf4 gene and Sox2 gene: see Nat Biotechnol 2008; 26: 101-106) into pancreas cells (particularly pancreatic hormone-producing cells), differentiation of human iPS cells was induced into endodermal cells by using a 96 well plate.
As the human iPS cells, 253G1 strain (iPS cell line produced by expressing OCT4/SOX2/KLF4 with retrovirus; Nature Biotechnology 26, 101-106) was used. Maintenance culture of the iPS cells in an undifferentiated state was performed using mitomycin-treated mouse fibroblast (MEFs) seeded on a gelatin-coated plate as feeder cells, and a medium for primate ES cells (ReproCELL Incorporated) added with 4 ng/ml bFGF (PeproTech EC) and 0.5× Penicillin-streptomycin (SIGMA) as a medium at 37° C. under 5% CO2. The medium was changed every day, the cell mass was detached every 4-5 days using a cell detachment solution for primate ES cell (ReproCELL Incorporated), and passaged by seeding on new feeder cells.
As a preculture for differentiation induction into endodermal cells, undifferentiated iPS cells were seeded in a 96 well plate. First, iPS cells maintained in a cell mass was treated with 0.25% trypsin-1 mM EDTA solution (GIBCO) and dissociated until they became single cells. Then, iPS cells dispersed in a medium were seeded in a 96 well plate at a density of 2×10^4 cells per well and cultured at 37° C. under 5% CO2 for 1 day. The 96 well plate used had been gelatin-coated, seeded with 5×10^3 MEFs and cultured at 37° C. under 5% CO2 for 5 hr. In addition, as a culture medium for seeding, a medium for primate ES cells added with 10 μM Y-27632 (Wako Pure Chemical Industries, Ltd.) was used. One day after seeding, the medium was changed to a medium for primate ES cells without Y-27632, and the cells were further cultured for 2 days until they became confluent.
Differentiation of iPS cells into endodermal cells was induced according to the following method. First, the confluent cells were washed with RPMI medium (GIBCO), RPMI medium containing various differentiation-inducing factors and 2% fetal bovine serum (FBS) was added, and the mixture was cultured for 1 day. […]
To examine variation in the expression of endoderm differentiation marker when cultured under each condition, differentiation-induced cells were recovered over time, and the total RNA fractions were purified using RNeasy96 (Qiagen). Using a PrimeScript RT reagent kit (Takara Bio Inc.), cDNA was synthesized, and quantitative RT-PCR was performed, whereby the gene expression level of BRACHYURY, which is a primitive streak marker, and SOX17, which is an endodermal marker, was measured.

[4] = test system: progenitor cells of pancreatic hormone-producing cells induced from human iPS cells; experiment: immunofluorescent staining with anti-insulin antibody after step (4); conditions: each added alone in step (4), day 10 to day 21; forskolin 10 μM, dibutyl cAMP 500 μM, IBMX 200 μM, ALK5 inhibitor II 5 μM, A-83-01 0.5 μM, SB431542 10 μM, TGFβRI kinase inhibitor VIII 2 μM, dexamethasone 10 μM, hydrocortisone 5 μM, betamethasone 2 μM, beclomethasone 1 μM
[5] = test system: endodermal cells induced from human iPS cells; conditions: added simultaneously with dorsomorphin (1 μM) and retinoic acid (2 μM) day 3 to day 10; SB431542 5 μM, ALK5 inhibitor II 2 μM, A-83-01 0.2 μM, TGFβRI kinase inhibitor VIII 0.2 μM; vs dorsomorphin and retinoic acid alone
Procedure: The dorsomorphin is an inhibitor of AMP-activated protein kinase (AMPK), and an inhibitor of ALK2, ALK3 and ALK6 from among activin receptor-like kinases (ALK). In addition, SB431542 is an inhibitor of ALK4, ALK5 and ALK7 from among ALKs.
As a control, the medium was changed to one added with dorsomorphin and retinoic acid alone (Ctrl). […] After the culture, the expression level of NGN3, which is progenitor cells of pancreatic hormone-producing cells marker, was measured in the same manner as in Example 1.

Molecule | C-peptide secretion level [1] | positive rate of insulin-expressing cells [4] | other results
COC(=O)C1=C(C)NC(C)=C([N+](=O)[O-])C1c1ccccc1C(F)(F)F (single isomer, unassigned; (-)) [(−)-Bay K8644] | increased | – | –
Cc1c[nH]c(-c2cnc(NCCNc3ccc(C#N)cn3)nc2-c2ccc(Cl)cc2Cl)n1 [CHIR99021, 6-[[2-[[4-(2,4-dichlorophenyl)-5-(4-methyl-1H-imidazol-2-yl)-2-pyrimidinyl]amino]ethyl]amino]nicotinonitrile] | – | – | ratio of cells expressing SOX17 protein ([2]; added with activin A (100 ng/ml) for 1 day, then activin A alone 2 days, CHIR99021 3 μM, Wnt3a 25 ng/ml, SB415286 3 μM, SB216763 20 μM): highest; also recorded: increased; expression level of SOX17 (endodermal marker) ([3]; then activin A alone 2 days, days 2-3): increased markedly; also recorded: high value; expression level of BRACHYURY (primitive streak marker) ([3]; day 1 of differentiation induction): transiently increased; also recorded: highest value
Cc1cccc(-c2nn(C(=S)Nc3ccccc3)cc2-c2ccnc3ccccc23)n1 [Example A-83-01, 3-[6-methyl-2-pyridinyl]-N-phenyl-4-[4-quinolinyl]-1H-pyrazole-1-carbothioamide] | – | remarkably increased; also recorded: induced differentiation into insulin-positive cells with high efficiency | expression level of NGN3 [5]: increased remarkably
CC(C)Cn1c(=O)n(C)c(=O)c2[nH]cnc21 [IBMX, 3-isobutyl-1-methylxanthine] | increased | remarkably increased; also recorded: induced differentiation into insulin-positive cells with high efficiency | –
[Cl-].[K+] [KCl] | increased | – | –
NC(=O)c1ccc(-c2nc(-c3ccc4c(c3)OCO4)c(-c3ccccn3)[nH]2)cc1 [SB431542, 4-[4-(1,3-benzodioxol-5-yl)-5-(2-pyridinyl)-1H-imidazol-2-yl]-benzamide] | – | remarkably increased; also recorded: induced differentiation into insulin-positive cells with high efficiency | expression level of NGN3 [5]: increased remarkably
Cc1cccc(-c2[nH]c(C(C)(C)C)nc2-c2ccc3nccnc3c2)n1 [TGFβRI kinase inhibitor VIII, 6-[2-tert-butyl-5-[6-methyl-pyridin-2-yl]-1H-imidazol-4-yl]-quinoxaline] | – | remarkably increased; also recorded: induced differentiation into insulin-positive cells with high efficiency | expression level of NGN3 [5]: increased remarkably
C[C@H]1C[C@H]2[C@@H]3CCC4=CC(=O)C=C[C@]4(C)[C@@]3(Cl)[C@@H](O)C[C@]2(C)[C@@]1(O)C(=O)CO [beclomethasone] | – | remarkably increased; also recorded: induced differentiation into insulin-positive cells with high efficiency | –
C[N+](C)(C)CCOC(N)=O [carbachol] | increased | – | –
CCCC(=O)Nc1ncnc2c1ncn2[C@@H]1O[C@@H]2COP(=O)(O)O[C@H]2[C@H]1OC(=O)CCC [dibutyl cAMP] | – | remarkably increased; also recorded: induced differentiation into insulin-positive cells with high efficiency | –
C[C@]12CCC(=O)C=C1CC[C@@H]1[C@@H]2[C@@H](O)C[C@@]2(C)[C@H]1CC[C@]2(O)C(=O)CO [hydrocortisone] | – | remarkably increased; also recorded: induced differentiation into insulin-positive cells with high efficiency | –
CCCCNC(=O)NS(=O)(=O)c1ccc(C)cc1 [tolbutamide] | increased | – | –
B1 | – | – | ratio of cells expressing SOX17 protein ([2]; activin A (100 ng/ml) alone for 3 days (Comparative Example 1)): a part of the cells also expressed SOX17 protein
